In BindingDB's records for doi:10.1124/jpet.102.034249 (Sanofi-Synthelabo Recherche, 2002) one finds Ki data, which are given here for 1 compound.

The target of assay [1] is 5-hydroxytryptamine receptor 5A (Homo sapiens, UniProt P47898).
Assay [2] concerns the target T1, 5-hydroxytryptamine receptor 3A (Homo sapiens, UniProt P46098).
T1 sequence (P46098 whole entry): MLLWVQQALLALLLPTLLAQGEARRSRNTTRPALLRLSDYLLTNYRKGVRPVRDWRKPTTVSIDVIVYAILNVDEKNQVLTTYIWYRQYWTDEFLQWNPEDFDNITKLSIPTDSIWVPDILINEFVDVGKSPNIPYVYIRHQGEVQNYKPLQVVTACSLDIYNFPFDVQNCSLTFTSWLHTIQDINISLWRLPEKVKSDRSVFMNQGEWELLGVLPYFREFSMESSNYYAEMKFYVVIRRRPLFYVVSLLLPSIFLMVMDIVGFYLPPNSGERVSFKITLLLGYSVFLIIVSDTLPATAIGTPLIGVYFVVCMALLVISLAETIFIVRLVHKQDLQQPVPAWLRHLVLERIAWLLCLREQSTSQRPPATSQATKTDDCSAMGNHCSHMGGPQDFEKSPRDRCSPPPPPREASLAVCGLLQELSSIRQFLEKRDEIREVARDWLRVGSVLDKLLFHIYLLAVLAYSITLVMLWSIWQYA

The target in assay [3] is 5-hydroxytryptamine receptor 2A (Homo sapiens, UniProt P28223).
Sequence of 5-hydroxytryptamine receptor 2A (P28223 whole entry): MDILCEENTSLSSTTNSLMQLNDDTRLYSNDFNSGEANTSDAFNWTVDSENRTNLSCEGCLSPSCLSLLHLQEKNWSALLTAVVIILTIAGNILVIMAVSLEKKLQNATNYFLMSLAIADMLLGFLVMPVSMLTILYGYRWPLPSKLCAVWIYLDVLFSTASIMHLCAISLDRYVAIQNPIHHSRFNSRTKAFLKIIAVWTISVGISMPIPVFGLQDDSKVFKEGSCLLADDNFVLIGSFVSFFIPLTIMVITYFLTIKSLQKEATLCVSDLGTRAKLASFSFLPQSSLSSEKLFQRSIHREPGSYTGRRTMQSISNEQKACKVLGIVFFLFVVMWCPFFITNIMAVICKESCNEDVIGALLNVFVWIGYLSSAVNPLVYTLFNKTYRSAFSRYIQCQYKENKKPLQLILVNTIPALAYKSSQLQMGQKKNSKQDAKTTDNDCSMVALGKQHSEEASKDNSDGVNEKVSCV
Assay [4] concerns the target 5-hydroxytryptamine receptor 4 (Homo sapiens, UniProt Q13639).
The target of assay [5] is 5-hydroxytryptamine receptor 1D (Homo sapiens, UniProt P28221).
Sequence of 5-hydroxytryptamine receptor 1D (P28221 whole entry): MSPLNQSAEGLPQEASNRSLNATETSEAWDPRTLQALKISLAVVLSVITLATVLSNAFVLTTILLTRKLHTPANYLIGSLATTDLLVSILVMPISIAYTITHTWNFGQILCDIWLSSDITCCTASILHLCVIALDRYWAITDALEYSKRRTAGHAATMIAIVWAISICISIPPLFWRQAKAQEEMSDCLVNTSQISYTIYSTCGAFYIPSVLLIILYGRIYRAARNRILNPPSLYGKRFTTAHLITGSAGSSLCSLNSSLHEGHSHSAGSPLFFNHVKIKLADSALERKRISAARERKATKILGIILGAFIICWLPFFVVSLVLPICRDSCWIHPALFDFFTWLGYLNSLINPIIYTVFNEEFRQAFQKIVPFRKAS
In assay [6] the target is 5-hydroxytryptamine receptor 6 (Homo sapiens, UniProt P50406).
Sequence of 5-hydroxytryptamine receptor 6 (P50406 whole entry): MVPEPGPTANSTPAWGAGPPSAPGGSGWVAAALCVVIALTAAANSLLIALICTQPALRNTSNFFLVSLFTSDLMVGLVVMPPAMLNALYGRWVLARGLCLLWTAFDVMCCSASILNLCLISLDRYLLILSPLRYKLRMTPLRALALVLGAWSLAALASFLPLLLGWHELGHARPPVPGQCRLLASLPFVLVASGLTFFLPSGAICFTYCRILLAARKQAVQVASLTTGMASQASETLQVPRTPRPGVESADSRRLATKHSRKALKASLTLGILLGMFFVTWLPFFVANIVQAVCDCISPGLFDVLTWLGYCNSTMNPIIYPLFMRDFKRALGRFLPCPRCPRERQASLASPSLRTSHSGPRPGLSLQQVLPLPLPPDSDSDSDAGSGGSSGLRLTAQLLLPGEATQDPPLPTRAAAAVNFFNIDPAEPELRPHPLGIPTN
Assay [7] deals with T2, 5-hydroxytryptamine receptor 2C (Homo sapiens, UniProt P28335).
T2 sequence (P28335 whole entry): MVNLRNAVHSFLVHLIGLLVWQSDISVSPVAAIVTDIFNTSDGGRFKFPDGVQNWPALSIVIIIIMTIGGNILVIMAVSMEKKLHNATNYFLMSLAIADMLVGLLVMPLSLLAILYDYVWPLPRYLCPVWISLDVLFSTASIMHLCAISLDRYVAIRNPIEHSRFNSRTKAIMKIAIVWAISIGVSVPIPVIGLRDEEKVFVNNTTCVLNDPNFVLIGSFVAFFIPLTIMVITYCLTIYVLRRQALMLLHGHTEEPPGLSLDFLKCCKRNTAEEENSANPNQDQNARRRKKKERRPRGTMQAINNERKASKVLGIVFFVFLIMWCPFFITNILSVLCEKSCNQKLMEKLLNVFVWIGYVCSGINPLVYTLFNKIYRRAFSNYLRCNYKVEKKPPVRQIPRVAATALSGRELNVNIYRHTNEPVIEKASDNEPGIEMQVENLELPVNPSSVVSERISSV

Assay [8] deals with 5-hydroxytryptamine receptor 2B (Homo sapiens, UniProt P41595).
Sequence of 5-hydroxytryptamine receptor 2B (P41595 whole entry): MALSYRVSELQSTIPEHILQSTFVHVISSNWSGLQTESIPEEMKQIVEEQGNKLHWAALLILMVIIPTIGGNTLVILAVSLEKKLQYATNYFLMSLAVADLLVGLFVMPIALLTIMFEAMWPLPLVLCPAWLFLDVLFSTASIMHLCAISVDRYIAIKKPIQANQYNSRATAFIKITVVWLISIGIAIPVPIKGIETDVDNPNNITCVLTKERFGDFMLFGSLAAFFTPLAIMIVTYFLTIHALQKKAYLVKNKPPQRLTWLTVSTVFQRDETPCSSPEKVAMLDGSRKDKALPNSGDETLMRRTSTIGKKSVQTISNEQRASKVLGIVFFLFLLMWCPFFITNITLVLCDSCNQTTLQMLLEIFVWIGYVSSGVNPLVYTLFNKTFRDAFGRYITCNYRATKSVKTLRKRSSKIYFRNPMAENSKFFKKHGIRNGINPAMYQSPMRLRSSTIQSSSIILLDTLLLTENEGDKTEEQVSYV
The target in assay [9] is T3, 5-hydroxytryptamine receptor 1A (Homo sapiens, UniProt P08908).
T3 sequence (P08908 whole entry): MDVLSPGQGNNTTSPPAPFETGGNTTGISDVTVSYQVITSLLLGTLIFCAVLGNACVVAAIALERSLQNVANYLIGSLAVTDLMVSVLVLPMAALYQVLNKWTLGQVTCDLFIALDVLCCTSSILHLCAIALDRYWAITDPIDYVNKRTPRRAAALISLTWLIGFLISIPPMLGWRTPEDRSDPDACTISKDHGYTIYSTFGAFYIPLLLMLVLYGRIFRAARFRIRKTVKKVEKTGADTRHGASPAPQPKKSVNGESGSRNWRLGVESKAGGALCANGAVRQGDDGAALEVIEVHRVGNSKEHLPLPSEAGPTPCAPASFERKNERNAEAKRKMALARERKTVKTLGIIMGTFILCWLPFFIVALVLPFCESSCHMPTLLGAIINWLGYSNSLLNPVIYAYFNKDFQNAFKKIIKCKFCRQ

The target in assay [10] is 5-hydroxytryptamine receptor 1B (Homo sapiens, UniProt P28222).
Sequence of 5-hydroxytryptamine receptor 1B (P28222 whole entry): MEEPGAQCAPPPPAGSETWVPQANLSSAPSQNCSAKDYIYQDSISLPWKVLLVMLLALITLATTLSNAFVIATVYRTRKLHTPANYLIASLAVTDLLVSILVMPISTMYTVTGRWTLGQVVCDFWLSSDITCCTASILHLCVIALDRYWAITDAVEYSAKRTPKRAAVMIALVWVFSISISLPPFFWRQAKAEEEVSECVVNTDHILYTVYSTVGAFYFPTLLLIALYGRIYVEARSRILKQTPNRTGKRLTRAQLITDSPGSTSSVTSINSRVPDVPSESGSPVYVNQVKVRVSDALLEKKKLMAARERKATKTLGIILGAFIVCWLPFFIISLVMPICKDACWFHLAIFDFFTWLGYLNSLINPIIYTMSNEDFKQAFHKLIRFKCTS
The target in assay [11] is 5-hydroxytryptamine receptor 7 (Homo sapiens, UniProt P34969).
Sequence of 5-hydroxytryptamine receptor 7 (P34969 whole entry): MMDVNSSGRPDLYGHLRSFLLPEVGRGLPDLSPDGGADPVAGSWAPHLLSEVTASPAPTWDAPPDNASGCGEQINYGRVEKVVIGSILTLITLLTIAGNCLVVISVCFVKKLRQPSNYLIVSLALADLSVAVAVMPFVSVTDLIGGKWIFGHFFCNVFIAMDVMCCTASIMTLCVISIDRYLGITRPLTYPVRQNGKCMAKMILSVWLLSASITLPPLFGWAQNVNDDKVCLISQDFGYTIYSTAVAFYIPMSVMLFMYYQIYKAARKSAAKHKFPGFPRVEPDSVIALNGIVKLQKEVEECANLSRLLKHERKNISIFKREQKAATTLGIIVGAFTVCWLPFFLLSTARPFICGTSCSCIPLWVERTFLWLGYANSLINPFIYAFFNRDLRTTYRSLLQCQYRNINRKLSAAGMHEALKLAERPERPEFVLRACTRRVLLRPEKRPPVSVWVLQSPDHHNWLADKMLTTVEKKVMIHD

Sequence of 5-hydroxytryptamine receptor 5A (P47898 whole entry): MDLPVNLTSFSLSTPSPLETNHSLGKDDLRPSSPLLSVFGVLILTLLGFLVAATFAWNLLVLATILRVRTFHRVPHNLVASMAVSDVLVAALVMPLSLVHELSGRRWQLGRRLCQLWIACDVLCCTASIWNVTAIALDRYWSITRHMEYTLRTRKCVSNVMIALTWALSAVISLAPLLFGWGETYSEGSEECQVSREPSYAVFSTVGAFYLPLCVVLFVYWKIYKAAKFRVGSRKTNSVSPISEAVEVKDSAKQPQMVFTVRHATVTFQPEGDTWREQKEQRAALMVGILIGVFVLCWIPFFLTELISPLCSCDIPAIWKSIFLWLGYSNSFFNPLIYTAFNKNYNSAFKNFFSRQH
Sequence of 5-hydroxytryptamine receptor 4 (Q13639 whole entry): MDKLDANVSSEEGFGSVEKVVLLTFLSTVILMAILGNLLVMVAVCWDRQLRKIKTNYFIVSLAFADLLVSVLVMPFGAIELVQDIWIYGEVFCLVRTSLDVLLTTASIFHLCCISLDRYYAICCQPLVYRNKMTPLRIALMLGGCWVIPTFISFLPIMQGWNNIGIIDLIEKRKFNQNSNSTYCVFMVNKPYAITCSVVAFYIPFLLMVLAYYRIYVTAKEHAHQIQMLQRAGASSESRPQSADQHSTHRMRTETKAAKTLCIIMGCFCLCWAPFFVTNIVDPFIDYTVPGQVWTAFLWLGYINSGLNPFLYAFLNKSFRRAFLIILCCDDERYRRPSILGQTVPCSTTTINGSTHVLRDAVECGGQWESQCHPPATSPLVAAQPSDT

As to `Nc1c(Cl)cc(-c2nn(C3CCN(CCc4ccccc4)CC3)c(=O)o2)c2c1OCCO2` [SL65.0155], the Ki (usually a dissociation constant, usually derived from enzyme kinetics or from competition with a known ligand) in assay [1] was > 10 µM; in assay [2] it was > 10 µM; in [3] it was 1.32 µM; in assay [4], 0.0006 µM; in assay [5], 7.99 µM; in assay [6], 2.58 µM. Also, the inhibition constant Ki in assay [7] turned out to be 4.78 µM; in assay [8], 1.56 µM; in assay [9], 1.02 µM; in assay [10], 5.5 µM; in assay [11], 3.26 µM.
